Laboratory results as given in patent publication US10239839B2, “Compounds and formulations suitable for radical scavenging” (Solenne BV, priority 2006, dated 2019).
“Also recorded” adds a separate entry of the source.

Legend:
[1] = Photo-oxidation of adamantylideneadamantane, UV light source; details: compared with α-tocopherol
Protocol: [e] Two beakers were irradiated simultaneously with a UV light source (Philips HB172, fitted with 4 Philips Cleo 15 W luminescent tubes; UV-type 3). Beaker 1 contained a mixture of 301.0 mg of adamantylideneadamantane and 24.9 mg of α-tocopherol (Aldrich, >97%) in 100 mL of chlorobenzene. This solution was placed in a 250 mL beaker, which was wrapped with paper and Al-foil to prevent light going through the side of the beaker. The solution was stirred magnetically and irradiated 7 hours with a UV lamp (Philips HB172, fitted with 4 Philips Cleo 15 W luminescent tubes; UV-type 3), which was mounted horizontally directly above the beakers. The reaction mixture was concentrated in vacuo and the resulting solid material was analyzed by ^1H NMR spectroscopy as described above. […] The ratio of the integrals of unreacted adamantylideneadamantane (at 2.9 ppm) to adamantylideneadamantane peroxide was 90:10.
Beaker 2 contained a mixture of 301.2 mg of adamantylideneadamantane and 25.0 mg of HG2-V2 in 100 mL of chlorobenzene. This solution was placed in a 250 mL beaker, which was wrapped with paper and Al-foil to prevent light going through the side of the beaker. […] The reaction mixture was concentrated in vacuo and the resulting solid material was analyzed by ^1H NMR spectroscopy as described above. […]

[2] = tested on: erythema; assay: Erythemal response to 3×MED full spectrum UV light after occluded patches; assay type: in vivo, human; details: 0.3% wt. in grape seed oil, 3×MED 24 hours after treatment, 25 subjects
Protocol: [c] 25 human subjects, for which the minimal erythemal dose (MED) of full spectrum UV light (Solar Light Company's 601-300 Multiport Simulator, emitting light of a Xenon-Shortarc Lamp) had been determined, were treated with 6 occluded patches (on the back) with a formulation of HG2-V2 (0.3% wt.) in grape seed oil. 24 hours after patch treatment, the regions of application were exposed to 3×MED of the same light source. […] This provides evidence that the formulation provided an anti-erythemic effect, since erythema scores for 3×MED should range between 1-3.

[3] = Percutaneous absorption study; assay type: in vitro ADME; details: 0.3% (wt.) in grape seed oil
Protocol: [d] A percutaneous absorption study was conducted with 6 fresh viable skin samples from one donor, where 20 times recommended usage level (recommended usage level is 6-8 drops on the face) of a 0.3% (wt.) formulation of HG2-V2 in grape seed oil was used. Analysis by extraction of receptor fluid with toluene and analysis with HPLC-MS (using Buckyprep analytical column) was performed.

[4] = UV-Vis absorbance / optical density; assay type: physicochemical
Protocol: All of these oils show an absorbance (A) at λ=570 nm of A570 less than 0.05 when measuring the neat oil against water, using 1 cm cuvettes as is general practice. The above absorbance profiles were measured by placing the neat oil in the 1 cm path length spectrometer cuvette. […] Olive oil typically has a darker appearance (and is thus more optically dense) than the other oils, and this can be seen in the absorption profile.
In many instances, the concentration of fullerene, fullerene derivative, or fullerene-derived ketolactam desired due to considerations of optimal antioxidant efficacy is higher than can be conveniently measured by standard UV/vis spectroscopy. For concentrated solutions, dilution may be necessary to obtain a proper spectrum in the so-called visible area (λ=400-700 nm). If such concentrated solutions are measured without dilution, A570 may exceed a limit to obtain an accurate measurement, or may even exceed the maximum value that can be measured by the spectrometer. As an example, the spectrum of a concentrated solution of HG2-V2 in grapeseed oil (9.2 mg HG2-V2 dissolved in 3 mL), diluted×10 (v/v) with toluene, is shown in FIG. 8. Here, A570 is 0.24, meaning that without dilution it would give approximately A=2.4. Common UV-Vis spectrometers can usually measure up to A≈5, meaning that for this solution a large part of the spectrum (λ<510 nm) could not have been accurately measured without dilution.
400 mg HG2-V2 was added to 100 g of commercially available liquid grape seed oil and stirred with mechanical stirring for 4 hours at 25 deg. C. The HG2-V2 dissolved to give a clear, dark, amber colored solution of 0.4% (wt.) active in a simple solution. The optical density measured for this solution was over 2 AU/cm, and after 10/1 dilution with toluene was over 0.2.

[5] = Stability of solutions exposed to light and air; assay type: physicochemical; details: dissolved in grape seed oil, darker than parent oil, up to a year
Text: For example, it is known in the art that a dilute solution of C60 in toluene exposed to light and air will undergo approximately 10% or more degradation and loss of the C60 due to epoxidation and subsequent breakdown of the fullerene cage resulting from singlet oxygen generated via photoexcitation of the C60. This can be seen even visually since the decomposed C60 forms a blackish product which settles out of solution.

[6] = natural sunlight, chlorobenzene
Protocol: [f] Two beakers were irradiated simultaneously by natural sunlight. Beaker 2 contained a solution of 300.5 mg of adad and 17.9 mg of PCBM in 100 mL of chlorobenzene. This solution was placed in a 250 mL beaker, wrapped with paper and Al-foil to prevent light going through the side of the beaker. […] The resulting solution was put in a brown-glass bottle for transport. The solvent was removed in vacuo and the resulting solid material was analyzed by ^1H NMR spectroscopy as described above.
This solution was placed in a 250 mL beaker, wrapped with paper and Al-foil to prevent light going through the side of the beaker. […] The resulting solution was placed in a brown-glass bottle for transport. Approximately 10 mL of the reaction mixture was filtered and put aside. The remaining amount was concentrated in vacuo and the resulting solid material was analyzed by ^1H NMR spectroscopy as described above.
This solution gave an absorbance of A=0.14 at 646 nm (against neat chlorobenzene).

[7] = Tagmatarchis et al.; Hauke et al.; cited from earlier work
[8] = Photo-oxidation of adamantylideneadamantane (ad=ad) to monitor ^1O2 formation, sodium lamp; details: bubbling air
Text: Excited fullerene, triplet+O2→fullerene+singlet oxygen (^1O2) The ^1O2 thus generated can react with a fullerene, giving an oxidized fullerene, or with other molecules that can react with ^1O2. One such molecule is adamantylideneadamantane (ad=ad), which is known to react with ^1O2, giving a stable 1,2-dioxetane, adamantylideneadamantane peroxide, as the product (J. H. Wieringa et al., Tetrahedron Letters 1972, 2, 169). This reaction is depicted in FIG. 11. This oxidation of ad=ad can be used to monitor the formation of ^1O2 by fullerenes or fullerene derivatives.
In a first set of experiments, Phenyl-C61-Butyric-Acid-Methyl-Ester (PCBM,) and HG2-V1 were compared. […] After reaction overnight, the solvent was removed in vacuo and the residual material analyzed by ^1H NMR. […]
In a second set of experiments, the above reaction was done at a high concentration (20 mg/mL) of ad=ad, this time using CCl4 as the solvent. […] Thus, samples from the reaction can be directly analyzed by ^1H NMR, when diluted with, e.g., CDCl3. […]
Samples of 150-200 μL were taken from the reaction and diluted with ˜400 μL of CDCl3. […] Thus, the formation of adamantylideneadamantane peroxide was monitored over time, by following the appearance of the signal at 2.65 ppm. […]

Molecule: 2a-Aza-1,2(2a)-homo-1,9-seco[5,6]fullerene-C60—Ih-1,9-dione,2a-[[4-docosyloxy)-3-methoxyphenyl]methyl] [HG2-V2]
- net generation of ^1O2 under UV irradiation, equal weight percentage [1]: less for HG2-V2 than α-tocopherol
- average erythemic response on the erythema response scale (1 = first sign of erythema) [2]: 0.77
- percutaneous absorption ([3]; 20 times recommended usage level, receptor fluid 8 hr and 24 hr): less than 0.004%
- content in receptor fluid (HPLC-MS) ([3]; 8 hr and 24 hr collection points): no HG2-V2 at or above analytical detection limit
- A570 ([4]; 9.2 mg in 3 mL grapeseed oil, diluted ×10 (v/v) with toluene): 0.24
- A570 without dilution ([4]; 9.2 mg in 3 mL grapeseed oil, extrapolated): ~2.4
- optical density ([4]; 0.4% (wt.) in grape seed oil): over 2 AU/cm
- optical density after 10/1 dilution with toluene ([4]; 0.4% (wt.) in grape seed oil): over 0.2
- decomposition on exposure to light and air [5]: reduced amount of decomposition products

Molecule: CN(C)c1ccc2nc3ccc(=[N+](C)C)cc-3sc2c1 [MB, methylene blue]
- average optical absorption between 400 nm and 700 nm compared to PCBM [4]: about 10 times
- amount of ^1O2 compared to PCBM on an equal absorption and equimolar basis [6]: 25 times
- net generation of ^1O2 compared to PCBM on an equimolar basis [6]: 250 times

Molecule: (C59N)2
- ^1O2 quantum yields (in words) [7]: reduced ^1O2 quantum yields

Molecule: C59NH
- ^1O2 quantum yields (in words) [7]: reduced ^1O2 quantum yields

Molecule: Phenyl-C61-Butyric-Acid-Methyl-Ester [PCBM]
- production of adamantylideneadamantane peroxide over time (ratio of peak at 2.65 ppm and signal at 2.88 ppm of ad=ad) ([8]; CCl4, ad=ad 20 mg/mL, 150 W sodium lamp, equal molarity): much faster
- amount of adamantylideneadamantane peroxide formed (^1H NMR signal at 2.65 ppm) ([8]; chlorobenzene, ad=ad 1.5 mg/mL, 400 W sodium lamp, 16.5-17 h): much larger than that formed when using HG2-V1; also recorded: substantial amount
